Reference: ChEMBL document CHEMBL5370538, “Discovery of novel 6-p-tolyl-3-(3,4,5-trimethoxybenzyl)-7H-[1,2,4]triazolo[3,4-b][1,3,4]thiadiazine derivative as a potent tubulin inhibitor with promising in vivo antitumor activity” (Eur J Med Chem, 2023)

How the values were obtained:
[1] = Oral bioavailability in Sprague-Dawley rat at 10 mg/kg measured upto 24 hrs by LC-MS/MS analysis; assay type: ADME, organism-based; conditions: in vivo
A549 [2] = experiment: Antiproliferative activity against human A549 cells assessed as cell growth inhibition incubated for 48 hrs by MTT assay; assay type: functional, cell-based; conditions: A549, 48 h
HT-29 = experiment: Antiproliferative activity against human HT-29 cells assessed as cell growth inhibition incubated for 48 hrs by MTT assay; assay type: functional, cell-based; conditions: HT-29, 48 h
HeLa [3] = experiment: Antiproliferative activity against human HeLa cells assessed as cell growth inhibition incubated for 48 hrs by MTT assay; assay type: functional, cell-based
[4] = Antiproliferative activity against human HEK293 cells assessed as cell growth inhibition incubated for 48 hrs by MTT assay; assay type: toxicity, cell-based
Tubulin (Homo sapiens) = Tubulin (Homo sapiens) (UniProt P68371+Q9H4B7+P0DPH7+P68366+Q13509+Q71U36+P04350+Q3ZCM7+P07437+P68363+Q9BQE3+Q6PEY2+Q13885+Q9BVA1+Q9BUF5); experiment: Inhibition of tubulin polymerization (unknown origin) at 10 uM measured for 20 mins in presence of GTP by spectrophotometry analysis relative to control; assay type: protein-complex assay
Tubulin = experiment: Inhibition of tubulin polymerization (unknown origin) measured for 20 mins in presence of GTP by spectrophotometry analysis; assay type: protein-complex assay, Homo sapiens
[5] = AUC (0-t) in Sprague-Dawley rat at 2 mg/kg,iv measured upto 24 hrs by LC-MS/MS analysis; assay type: ADME, organism-based; set-up: dose 2 mg/kg, time < 24 hrs, route iv; conditions: in vivo
[6] = AUC (0-infinity) in Sprague-Dawley rat at 2 mg/kg,iv measured upto 24 hrs by LC-MS/MS analysis; assay type: ADME, organism-based; set-up: dose 2 mg/kg, time < 24 hrs, route iv; conditions: in vivo
[7] = AUC (0-infinity) in Sprague-Dawley rat at 10 mg/kg,po measured upto 24 hrs by LC-MS/MS analysis; assay type: ADME, organism-based; set-up: time < 24 hrs, dose 10 mg/kg, route po; conditions: in vivo
[8] = MRT (0-t) in Sprague-Dawley rat at 10 mg/kg,po measured upto 24 hrs by LC-MS/MS analysis; assay type: ADME, organism-based; conditions: in vivo
[9] = MRT (0-infinity) in Sprague-Dawley rat at 2 mg/kg,iv measured upto 24 hrs by LC-MS/MS analysis; assay type: ADME, organism-based; conditions: in vivo
[10] = MRT (0-infinity) in Sprague-Dawley rat at 10 mg/kg,po measured upto 24 hrs by LC-MS/MS analysis; assay type: ADME, organism-based; conditions: in vivo
[11] = Half life in Sprague-Dawley rat at 10 mg/kg,po measured upto 24 hrs by LC-MS/MS analysis; assay type: ADME, organism-based; conditions: in vivo
[12] = Tmax in Sprague-Dawley rat at 2 mg/kg,iv measured upto 24 hrs by LC-MS/MS analysis; assay type: ADME, organism-based; conditions: in vivo
[13] = Tmax in Sprague-Dawley rat at 10 mg/kg,po measured upto 24 hrs by LC-MS/MS analysis; assay type: ADME, organism-based; conditions: in vivo
[14] = Clearance in Sprague-Dawley rat at 2 mg/kg,iv measured upto 24 hrs by LC-MS/MS analysis; assay type: ADME, organism-based; conditions: in vivo
[15] = Clearance in Sprague-Dawley rat at 10 mg/kg,po measured upto 24 hrs by LC-MS/MS analysis; assay type: ADME, organism-based; conditions: in vivo
[16] = Volume of distribution at steady state in Sprague-Dawley rat at 2 mg/kg,iv measured upto 24 hrs by LC-MS/MS analysis; assay type: ADME, organism-based; conditions: in vivo
[17] = Volume of distribution at steady state in Sprague-Dawley rat at 10 mg/kg,po measured upto 24 hrs by LC-MS/MS analysis; assay type: ADME, organism-based; conditions: in vivo
[18] = Cmax in Sprague-Dawley rat at 2 mg/kg,iv measured upto 24 hrs by LC-MS/MS analysis; assay type: ADME, organism-based; set-up: time < 24 hrs, dose 2 mg/kg, route iv; conditions: in vivo
HeLa [19] = experiment: Induction of cell cycle arrest in human HeLa cells assessed as accumulation of cells at G0/G1 phase at 0.03 uM incubated for 24 hrs by propidium iodide staining based flow cytometry (reference value: 62.4 %); assay type: functional
HeLa [20] = experiment: Induction of cell cycle arrest in human HeLa cells assessed as accumulation of cells at G0/G1 phase at 0.06 uM incubated for 24 hrs by propidium iodide staining based flow cytometry (reference value: 62.4 %); assay type: functional
HeLa [21] = experiment: Induction of cell cycle arrest in human HeLa cells assessed as accumulation of cells at G0/G1 phase at 0.12 uM incubated for 24 hrs by propidium iodide staining based flow cytometry (reference value: 62.4 %); assay type: functional
HeLa [22] = experiment: Induction of cell cycle arrest in human HeLa cells assessed as accumulation of cells at G2/M phase at 0.03 uM incubated for 24 hrs by propidium iodide staining based flow cytometry (reference value: 17.38 %); assay type: functional
HeLa [23] = experiment: Induction of cell cycle arrest in human HeLa cells assessed as accumulation of cells at G2/M phase at 0.12 uM incubated for 24 hrs by propidium iodide staining based flow cytometry (reference value: 17.38 %); assay type: functional
HeLa [24] = experiment: Induction of cell cycle arrest in human HeLa cells assessed as accumulation of cells at S phase at 0.03 uM incubated for 24 hrs by propidium iodide staining based flow cytometry (reference value: 20.22 %); assay type: functional
HeLa [25] = experiment: Induction of cell cycle arrest in human HeLa cells assessed as accumulation of cells at S phase at 0.06 uM incubated for 24 hrs by propidium iodide staining based flow cytometry (reference value: 20.22 %); assay type: functional
HeLa [26] = experiment: Induction of cell cycle arrest in human HeLa cells assessed as accumulation of cells at S phase at 0.12 uM incubated for 24 hrs by propidium iodide staining based flow cytometry (reference value: 20.22 %); assay type: functional
HeLa [27] = experiment: Induction of apoptosis in human HeLa cells assessed as viable cells at 0.03 uM incubated for 24 hrs Annexin V-FITC/PI staining based flow cytometry analysis (Rvb= 95.9 %); assay type: functional; conditions: read-out: Activity
HeLa [28] = experiment: Induction of apoptosis in human HeLa cells assessed as viable cells at 0.12 uM incubated for 24 hrs Annexin V-FITC/PI staining based flow cytometry analysis (Rvb= 95.9 %); assay type: functional; conditions: read-out: Activity
HeLa [29] = experiment: Induction of apoptosis in human HeLa cells assessed as early apoptotic cells at 0.03 uM incubated for 24 hrs Annexin V-FITC/PI staining based flow cytometry analysis (Rvb= 1.85 %); assay type: functional
HeLa [30] = experiment: Induction of apoptosis in human HeLa cells assessed as late apoptotic cells at 0.03 uM incubated for 24 hrs Annexin V-FITC/PI staining based flow cytometry analysis (Rvb= 2.13 %); assay type: functional
HeLa [31] = experiment: Induction of apoptosis in human HeLa cells assessed as late apoptotic cells at 0.06 uM incubated for 24 hrs Annexin V-FITC/PI staining based flow cytometry analysis (Rvb= 2.13 %); assay type: functional
HeLa [32] = experiment: Induction of apoptosis in human HeLa cells assessed as necrotic cells at 0.03 uM incubated for 24 hrs Annexin V-FITC/PI staining based flow cytometry analysis (Rvb= 0.12 %); assay type: functional
HeLa [33] = experiment: Induction of apoptosis in human HeLa cells assessed as necrotic cells at 0.06 uM incubated for 24 hrs Annexin V-FITC/PI staining based flow cytometry analysis (Rvb= 0.12 %); assay type: functional
A549 [34] = experiment: Antitumor activity against human A549 cells xenografted in Balb/c mouse assessed as tumor growth inhibition at 60 mg/kg,ip administrated for 7 days; assay type: functional; conditions: A549, 168 h, time 7 day, read-out: TGI
[35] = Toxicity in Balb/c mouse xenografted with human A549 cells assessed as change in body weight at 60 mg/kg,ip administrated for 7 days; assay type: organism-based; conditions: in vivo, 168 h, time 7 day

bioavailability [1]: 11.6%
IC50 (A549 [2]): 960 nM
IC50 (HT-29): 570 nM
IC50 (HeLa [3]): 46 nM
inhibition (Tubulin (Homo sapiens)): 43%
IC50 (Tubulin): 11200 nM
AUC(0-t) at 24 h [5]: 307 ng·h/mL
AUC(0-inf) [6]: 310 ng·h/mL
AUC(0-inf) [7]: 124 ng·h/mL
MRT last at 24 h [8]: 6.4 h
MRT [9]: 1.8 h
MRT inf [10]: 7.9 h
half-life [11]: 4.8 h
Tmax [12]: 6 min
Tmax [13]: 4.3 h
CL [14]: 118 mL/min/kg
CL/F [15]: 2180 mL/min/kg
Vdss [16]: 91.5 L/kg
Vdss [17]: 1036.2 L/kg
Cmax [18]: 670 ng/mL
SMILES: COc1cc(Cc2nnc3n2N=C(c2ccc(C)cc2)CS3)cc(OC)c1OC
IC50 at 48 h [4]: > 100000 nM
Activity (HeLa [19]): 52.76%
Activity (HeLa [20]): 1.94%
Activity (HeLa [21]): 0.51%
Activity (HeLa [22]): 27.37%
Activity (HeLa [23]): 91.09%
Activity (HeLa [24]): 19.86%
Activity (HeLa [25]): 28.35%
Activity (HeLa [26]): 8.4%
viability at 0.03 µM (HeLa [27]): 76%
viability at 0.12 µM (HeLa [28]): 65.2%
Activity (HeLa [29]): 18.6%
Activity (HeLa [30]): 4.9%
Activity (HeLa [31]): 7.44%
Activity (HeLa [32]): 0.57%
Activity (HeLa [33]): 0.46%
inhibition in vivo at 60 mg/kg (A549 [34]): 47.3%
Activity [35]: Non-Toxic
